From patent publication US11058734B2, “Probiotic strains having cholesterol absorbing capacity, methods and uses thereof” (BIOSEARCH, S.A., priority 2014, dated 2021)

System: HT-29 enterocytes
Experiment: Fluoresterol absorption by HT-29 enterocytes (flow cytometry)
Assay type: cell-based
Conditions: Homo sapiens, Ezetimibe at maximum effective concentration 300 μM
Experimental: HT-29 enterocytes were obtained from the CIC of the University of Granada (Spain) and cultured in DMEM medium supplemented with a 10% (v/v) of FBS, non-essential amino acids and 2 mM L-glutamine; at 37° C. and 5% (v/v) CO2. Cultures for fluoresterol absorption were grown for 14 days using 96-well plates, incubated for 3-4 h with micelles of fluoresterol and bacterial suspensions at 5·10^8 bacteria/mL, or […] Ezetimibe (MSD-SP Ltd) as positive control. Before fluorocytometric assays, HT-29 cultures were disagreggated by trypsin treatment, the medium and free micelles of fluoresterol removed by centrifugation and enterocytes suspended in PBS buffer.
Micelles of fluoresterol, containing 10 mM sodium taurocholate, 6 mM phosphatidylcholine and 0.2 mM fluoresterol were prepared as described by Sparrow et al. (Sparrow et al., 1999, J Lipid Res 40:1747-57). Fluoresterol absorption by bacteria was analyzed incubating bacterial suspensions (5·10^8 bacteria/mL) with micelles (0.1 mg/mL fluoresterol) in PBS buffer at 37° C. […] Finally, bacteria associated fluorescence was determined in a Tecan Genius microplate reader (485 nm excitation, 535 nm emission filters) or in a Beckton Dickinson FACScalibur flow cytometer. […] Absorbed fluoresterol was quantified based on the data of fluorescence (λex: 488 nm; λem: 530 nm) per cell obtained from 2,000 events in each sample. […]

O=C1[C@H](CC[C@H](O)c2ccc(F)cc2)[C@@H](c2ccc(O)cc2)N1c1ccc(F)cc1 [Ezetimibe]
inhibition at 300 µM: 40%
